# Patent US6465443B2, “Method for inhibiting bone resorption” (Merck & Co., Inc., priority 1997, dated 2002)
# Legend:
# esophagus = settings: oral administration, patients; cited from earlier work
# canine esophagus tissue = experiment: Esophageal irritation potential, dog model (esophageal infusion, histopathology); assay type: in vivo; settings: for Esophageal irritation potential: low dosages on consecutive days (Group 7, Group 8)
# Experimental: The esophageal irritation potential of the bisphosphonates is evaluated using a dog model.
# The following solutions are prepared:
# (1) simulated gastric juice (pH about 2), i.e. the control solution.
# (5) simulated gastric juice (pH about 2) containing about 0.20 mg/mL of risedronate sodium on a risedronic acid active basis.
# (6) simulated gastric juice (pH about 2) containing about 4.0 mg/mL of tiludronate disodium on a tiludronic acid active basis.
# The simulated gastric juice is prepared by dissolving about 960 mg of pepsin (L-585,228000B003, Fisher Chemical) in about 147 mL of 0.90 (wt %) NaCl (aqueous), adding about 3 mL of 1.0 M HCl (aqueous), and adjusting the volume to about 300 mL with deionized water. The pH of the resulting solution is measured and if necessary is adjusted to about 2 using 1.0 M HCl (aqueous) or 1.0 M NaOH (aqueous).
# The animals used in the experiments are anesthetized and administered about 50 mL of the appropriate solution over about 30 minutes by infusion into the esophagus using an infusion pump and a rubber catheter. The following treatment experiments are run:
# Group 1: This control group contains four animals. Each animal is administered a dosage of about 50 mL of simulated gastric juice [solution (1)] on each of five consecutive days. […]
# Group 2: This group contains four animals. […]
# Group 3: This group contains five animals. […] The animals are sacrificed about 24 hours after the dose is administered.
# Group 4: This group contains five animals. […] The animals are sacrificed about 7 days after the dose is administered.
# Group 5: This group contains six animals. […] The animals are administered a total of four dosages. The animals are sacrificed about 7 days after the last dose is administered.
# Group 6: This group contains six animals. […] The animals are administered a total of eight dosages. The animals are sacrificed about four days after the last dose is administered.
# Group 7: This group contains eight animals. Each animal is administered a dosage of about 50 mL of simulated gastric juice containing about 0.20 mg/mL of risedronate [solution (5)] on each of five consecutive days. […]
# Group 8: This group contains four animals. Each animal is administered a dosage of about 50 mL of simulated gastric juice containing about 4.0 mg/mL of tiludronate [solution (6)] on each of five consecutive days. […]
# The esophagus from each sacrificed animal is removed and prepared for histopathology using standard techniques by embedding the tissue in paraffin, staining with hematoxylin and eosin. The sections are examined microscopically.
# bone mineralization = settings: doses used clinically; cited from earlier work
# bone resorption = settings: early postmenopausal bone loss (Mortensen et al.); cited from earlier work
# [1] = Group 4: 0.80 mg/mL, 1X, sacrifice 7 days after dosing
structure (smiles),measurement,setting,value
"NCCCC(O)(P(=O)(O)O)P(=O)(O)O [Alendronate, 4-amino-1-hydroxybutylidene-1,1-bisphosphonic acid monosodium trihydrate]",Adverse gastrointestinal (esophageal) effects associated with use,esophagus,associated with esophagitis and/or esophageal ulcers
same,Histo-pathology (esophagus),"canine esophagus tissue; Group 2 (n = 4): 0.20 mg/mL, about 50 mL in simulated gastric juice pH about 2, 1X daily for 5 days, sacrifice immediately after last dosing, listed as alendronate, monosodium trihydrate",deep ulceration of the epithelial surface and marked submucosal inflammation and vacuolation
same,Histo-pathology (esophagus),"canine esophagus tissue; Group 3 (n = 5): 0.80 mg/mL, about 50 mL in simulated gastric juice, 1X, sacrifice 24 hours after dosing, listed as alendronate, monosodium trihydrate",intact epithelial surface with very slight submucosal inflammation and vacuolation
same,Histo-pathology (esophagus),"canine esophagus tissue; Group 3 (n = 5): 0.80 mg/mL, about 50 mL in simulated gastric juice, 1X, sacrifice 24 hours after dosing, monosodium trihydrate",Intact epithelial
same,Histo-pathology (esophagus),"canine esophagus tissue; Group 4 (n = 5): 0.80 mg/mL, about 50 mL in simulated gastric juice, 1X, sacrifice 7 days after dosing, listed as alendronate, monosodium trihydrate",intact epithelium with either minimal inflammation (two of the five animals) or no inflammation (three of the five animals) and no vacuolation
same,Animals with minimal inflammation,canine esophagus tissue; [1],inflammation (2 of 5
same,Animals with no inflammation,canine esophagus tissue; [1],inflammation (3 of 5
same,Histo-pathology (esophagus),"canine esophagus tissue; Group 5 (n = 6): 0.80 mg/mL, about 50 mL in simulated gastric juice, 1X weekly for a total of 4 doses, sacrifice 7 days after last dosing, listed as alendronate, monosodium trihydrate",normal with an intact epithelium and absence of inflammatory cells in the submucosa
same,Histo-pathology (esophagus),"canine esophagus tissue; Group 5 (n = 6): 0.80 mg/mL, about 50 mL in simulated gastric juice, 1X weekly for a total of 4 doses, sacrifice 7 days after last dosing, monosodium trihydrate",Intact epithelium with
same,Histo-pathology (esophagus),"canine esophagus tissue; Group 6 (n = 6): 0.40 mg/mL, about 50 mL in simulated gastric juice, 2X weekly for 4 weeks, sacrifice immediately after last dosing (table; text: about four days after), listed as alendronate, monosodium trihydrate",deep ulceration of the epithelial surface and marked submucosal inflammation and vacuolation
"CC(O)(P(=O)(O)O)P(=O)(O)O [etidronate, 1-hydroxyethane-1,1-diphosphonic acid]",Effect on bone mineralization,bone mineralization,impairs mineralization at doses used clinically
"O=P(O)(O)C(Sc1ccc(Cl)cc1)P(=O)(O)O [Tiludronate, (4-chlorophenyl)thiomethane-1,1-disphosphonic acid]",Histo-pathology (esophagus),"canine esophagus tissue; Group 8 (n = 4): 4.0 mg/mL, about 50 mL in simulated gastric juice, 1X daily for 5 days, sacrifice 24 hours after last dosing (table; text: immediately)",Slight submucosal
same,Histo-pathology (esophagus),"canine esophagus tissue; Group 8 (n = 4): 4.0 mg/mL, about 50 mL in simulated gastric juice, 1X daily for 5 days, sacrifice 24 hours after last dosing (table; text: immediately), listed as tiludronate",slight ulceration of the epithelial surface and slight submucosal inflammation and vacuolation
same,Animals with slight submucosal inflammation and vacuolation,"canine esophagus tissue; Group 8: 4.0 mg/mL, 1X daily for 5 days",vacuolation (3 of 4
same,Esophageal irritation potential,canine esophagus tissue,high
"O=P(O)(O)C(O)(Cc1cccnc1)P(=O)(O)O [Risedronate, 1-hydroxy-2-(3-pyridinyl)-ethylidene-1,1-bisphosphonic acid]",Histo-pathology (esophagus),"canine esophagus tissue; Group 7 (n = 8): 0.20 mg/mL, about 50 mL in simulated gastric juice, 1X daily for 5 days, sacrifice immediately after last dosing, listed as risedronate",deep ulceration of the epithelial surface and marked submucosal inflammation and vacuolation
same,Animals with deep ulceration of epithelial surface,"canine esophagus tissue; Group 7: 0.20 mg/mL, 1X daily for 5 days, sacrifice immediately after last dosing",(4 of 8 animals).
same,Esophageal irritation potential,canine esophagus tissue,high
same,Antiresorptive efficacy of cyclic dosing relative to continuous daily dosing,bone resorption,cyclic dosing is actually less effective than continuous daily dosing
"NCCC(O)(P(=O)(O)O)P(=O)(O)O [pamidronate, 3-amino-1-hydroxypropylidene-1,1-bisphosphonic acid]",Adverse gastrointestinal (esophageal) effects associated with use,esophagus,associated with esophageal ulcers
